Test results from patent US8772480B2, “Inhibitors of PI3 kinase and/or mTOR” (priority 2009, dated 2014).
Where two headings read alike, the source gives them in different places.

Experiments:
[1] = tested on: phosphorylation of Akt at Serine 473 in U87 MG cells; assay: cells; conditions: Homo sapiens, U-87 MG, 2 h
[2] = target: PI3Kα (Homo sapiens (Human), UniProt P42336); conditions: read-out: PI3Kα AlphaScreen ® Ki
[3] = read-out: U87Cell IC50, pAkt (Ser 473), U87 MG cells, two hours with compound

Sequence of PI3Kα (P42336 whole entry): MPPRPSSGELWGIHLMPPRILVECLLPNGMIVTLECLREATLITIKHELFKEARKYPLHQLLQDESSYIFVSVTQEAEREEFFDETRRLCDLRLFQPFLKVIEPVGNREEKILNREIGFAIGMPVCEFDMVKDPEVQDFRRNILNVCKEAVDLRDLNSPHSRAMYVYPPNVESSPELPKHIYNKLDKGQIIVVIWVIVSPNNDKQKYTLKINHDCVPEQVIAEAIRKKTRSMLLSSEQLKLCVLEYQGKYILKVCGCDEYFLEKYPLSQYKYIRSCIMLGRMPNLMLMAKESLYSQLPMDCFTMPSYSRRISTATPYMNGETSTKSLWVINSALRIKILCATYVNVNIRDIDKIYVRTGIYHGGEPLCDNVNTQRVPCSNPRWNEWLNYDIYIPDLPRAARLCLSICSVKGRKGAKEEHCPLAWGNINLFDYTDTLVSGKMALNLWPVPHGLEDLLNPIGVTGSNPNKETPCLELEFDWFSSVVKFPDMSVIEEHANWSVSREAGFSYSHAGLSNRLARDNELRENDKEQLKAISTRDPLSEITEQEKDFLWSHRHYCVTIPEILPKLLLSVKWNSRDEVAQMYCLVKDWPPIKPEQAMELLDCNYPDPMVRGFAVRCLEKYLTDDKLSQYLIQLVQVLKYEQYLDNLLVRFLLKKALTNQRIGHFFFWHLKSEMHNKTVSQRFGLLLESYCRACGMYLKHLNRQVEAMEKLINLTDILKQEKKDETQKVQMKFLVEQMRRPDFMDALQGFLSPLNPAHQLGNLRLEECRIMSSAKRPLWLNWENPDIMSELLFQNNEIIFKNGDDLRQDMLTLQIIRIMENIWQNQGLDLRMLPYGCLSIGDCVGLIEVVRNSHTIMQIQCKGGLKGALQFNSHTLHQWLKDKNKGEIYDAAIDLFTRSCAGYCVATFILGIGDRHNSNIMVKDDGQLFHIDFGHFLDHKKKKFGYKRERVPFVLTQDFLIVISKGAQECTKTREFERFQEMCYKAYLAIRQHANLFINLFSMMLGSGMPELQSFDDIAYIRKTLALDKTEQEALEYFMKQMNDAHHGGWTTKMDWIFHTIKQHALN
Sequence of PI3Kα (P27986 whole entry partner): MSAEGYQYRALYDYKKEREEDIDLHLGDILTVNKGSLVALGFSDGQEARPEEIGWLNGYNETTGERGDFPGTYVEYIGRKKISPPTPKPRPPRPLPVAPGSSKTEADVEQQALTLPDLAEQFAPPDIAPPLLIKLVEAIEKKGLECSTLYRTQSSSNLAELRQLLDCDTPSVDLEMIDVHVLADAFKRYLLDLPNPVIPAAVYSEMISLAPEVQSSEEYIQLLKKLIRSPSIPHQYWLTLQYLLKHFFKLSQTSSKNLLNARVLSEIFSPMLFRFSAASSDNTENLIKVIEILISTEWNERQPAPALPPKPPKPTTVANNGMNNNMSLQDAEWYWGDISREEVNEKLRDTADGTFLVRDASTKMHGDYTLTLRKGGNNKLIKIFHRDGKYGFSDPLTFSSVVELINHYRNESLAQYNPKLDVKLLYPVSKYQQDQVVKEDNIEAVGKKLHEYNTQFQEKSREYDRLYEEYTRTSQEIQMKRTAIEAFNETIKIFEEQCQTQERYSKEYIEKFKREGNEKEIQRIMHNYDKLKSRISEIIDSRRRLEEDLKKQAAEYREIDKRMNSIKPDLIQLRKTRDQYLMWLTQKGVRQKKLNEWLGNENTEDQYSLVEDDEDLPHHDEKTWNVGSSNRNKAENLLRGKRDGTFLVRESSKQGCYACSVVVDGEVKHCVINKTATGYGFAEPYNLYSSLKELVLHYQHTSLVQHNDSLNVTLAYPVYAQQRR

Row | IC50 [1, 3] [nM] | Ki [2] [nM] | SMILES | IC50 ([1]; read-out: U87Cell IC50) [nM]
1 | 3 | 1 | COc1ncc(Nc2ncc([C@@H](C)N3CCN(S(C)(=O)=O)C[C@@H]3C)cc2-c2cc(N)nc(C)n2)cc1F [Example 306, 6-(2-((5-fluoro-6-methoxy-3-pyridinyl)amino)-5-((1R)-1-((2S)-2-methyl-4-(methylsulfonyl)-1-piperazinyl)ethyl)-3-pyridinyl)-2-methyl-4-pyrimidinamine] | 
2 | > 10000 | 260 | Cc1nc(N)cc(-c2nccnc2Nc2cnc(Cl)c(NS(C)(=O)=O)c2)n1 [Example 307, N-(5-((3-(6-amino-2-methyl-4-pyrimidinyl)-2-pyrazinyl)amino)-2-chloro-3-pyridinyl)methanesulfonamide] | 
3 | 46 | 44 | Cc1nc(N)nc(-c2cc([C@@H](C)N3CCN(S(C)(=O)=O)CC3)cnc2Nc2ccc(Cl)nc2)n1 [Example 309, (R)-4-(2-(6-chloropyridin-3-ylamino)-5-(1-(4-(methylsulfonyl)piperazin-1-yl)ethyl)pyridin-3-yl)-6-methyl-1,3,5-triazin-2-amine] | 
4 | > 10000 | 7 | COc1ncc(Nc2ncc(CN3CCN(S(C)(=O)=O)CC3C(F)(F)F)cc2-c2nc(C)nc(N)n2)cc1F (centres unmarked) [Example 313, 4-(2-(5-Fluoro-6-Methoxypyridin-3-Ylamino)-5-((4-(Methylsulfonyl)-2-(Trifluoromethyl)Piperazin-1-yl)Methyl)Pyridin-3-yl)-6-Methyl-1,3,5-Triazin-2-Amine] | 
5 | 31 | 27 | COc1ncc(Nc2ncc(CN3CCOC[C@@H]3C)cc2-c2nc(C)nc(N)n2)cc1F [Example 315, (S)-4-(2-(5-Fluoro-6-Methoxypyridin-3-Ylamino)-5-((3-Methylmorpholino)Methyl)Pyridin-3-yl)-6-Methyl-1,3,5-Triazin-2-Amine] | 
6 | 12 | 18 | COc1cc(Nc2ncc(CN3CCN(S(C)(=O)=O)C[C@@H]3C)cc2-c2nc(C)nc(N)n2)cnc1Cl [Example 317, (S)-4-(2-(6-Chloro-5-Methoxypyridin-3-Ylamino)-5-((2-Methyl-4-(Methylsulfonyl)Piperazin-1-yl)Methyl)Pyridin-3-yl)-6-Methyl-1,3,5-Triazin-2-Amine] | 
7 | 44 | 32 | Cc1nc(N)nc(-c2cc(CN3CCN(S(C)(=O)=O)C[C@@H]3C)cnc2Nc2ccc(Cl)nc2)n1 [Example 318, (S)-4-(2-(6-Chloropyridin-3-Ylamino)-5-((2-Methyl-4-(Methylsulfonyl)Piperazin-1-yl)Methyl)Pyridin-3-yl)-6-Methyl-1,3,5-Triazin-2-Amine] | 
8 | 52 | 21 | COc1ncc(Nc2ncc(CN3CCN(S(C)(=O)=O)C[C@@H]3C)cc2-c2nc(C)nc(N)n2)cn1 [Example 319, (S)-4-(2-(2-Methoxypyrimidin-5-Ylamino)-5-((2-Methyl-4-(Methylsulfonyl)Piperazin-1-yl)Methyl)Pyridin-3-yl)-6-Methyl-1,3,5-Triazin-2-Amine] | 
9 | 61 | 124 | COc1ccc(Nc2ncc(C(C)(O)C(F)(F)F)cc2-c2nc(C)nc(N)n2)cn1 (centres unmarked) [Example 320, 2-(5-(4-amino-6-methyl-1,3,5-triazin-2-yl)-6-(6-methoxypyridin-3-ylamino)pyridin-3-yl)-1,1,1-trifluoropropan-2-ol] | 
10 | 80 | 34 | COc1ccc(Nc2ncc(C(N3CCN(S(C)(=O)=O)CC3)C(F)(F)F)cc2-c2nc(C)nc(N)n2)cn1 (centres unmarked) [Example 321, 4-(2-(6-Methoxypyridin-3-Ylamino)-5-(2,2,2-Trifluoro-1-(4-(Methylsulfonyl)Piperazin-1-yl)Ethyl)Pyridin-3-yl)-6-Methyl-1,3,5-Triazin-2-Amine] | 
11 | 51 | 86 | COc1ccc(Nc2ncc([C@@H](O)C(F)(F)F)cc2-c2nc(C)nc(N)n2)cn1 [Example 322, (R)-1-(5-(4-amino-6-methyl-1,3,5-triazin-2-yl)-6-(6-methoxypyridin-3-ylamino)pyridin-3-yl)-2,2,2-trifluoroethanol] | 

Continued, molecule first:

Row | SMILES | IC50 [1, 3] [nM] | Ki [2] [nM] | IC50 ([1]; read-out: U87Cell IC50) [nM]
12 | Cc1nc(N)nc(-c2cc(C(C)N3CCN(C(=O)N(C)C)CC3)cnc2Nc2ccc3scnc3c2)n1 (centres unmarked) [Example 289, 4-(1-(5-(4-Amino-6-Methyl-1,3,5-Triazin-2-yl)-6-(Benzo[D]Thiazol-5-Ylamino)Pyridin-3-yl)Ethyl)-N,N-Dimethylpiperazine-1-Carboxamide] | 111 | 60 | 
13 | Cc1nc(N)nc(-c2cc(C(C)N3CCN(S(C)(=O)=O)CC3)cnc2Nc2ccc3scnc3c2)n1 (centres unmarked) [Example 290, N-(3-(4-Amino-6-Methyl-1,3,5-Triazin-2-yl)-5-(1-(4-(Methylsulfonyl)Piperazin-1-yl)Ethyl)Pyridin-2-yl)Benzo[D]Thiazol-5-Amine] | 45 | 24 | 
14 | Cc1nc(N)nc(-c2cc([C@@H](C)N3CCN(S(C)(=O)=O)C[C@@H]3C)cnc2Nc2ccc3scnc3c2)n1 [Example 293, N-(3-(4-Amino-6-Methyl-1,3,5-Triazin-2-yl)-5-((R)-1-((S)-2-Methyl-4-(Methylsulfonyl)Piperazin-1-yl)Ethyl)Pyridin-2-yl)Benzo[D]Thiazol-5-Amine] | 24 | 4 | 
15 | COc1ncc(Nc2ncc(C(C)N3CCN(C(=O)N(C)C)CC3)cc2-c2nc(C)nc(N)n2)cc1F (centres unmarked) [Example 294, 4-(1-(5-(4-Amino-6-Methyl-1,3,5-Triazin-2-yl)-6-(5-Fluoro-6-Methoxypyridin-3-Ylamino)Pyridin-3-yl)Ethyl)-N,N-Dimethylpiperazine-1-Carboxamide] | 90 | 12 | 
16 | COc1ncc(Nc2ncc([C@@H](C)N3CCN(S(C)(=O)=O)C[C@@H]3C)cc2-c2nc(C)nc3[nH]cnc23)cc1F [Example 295, N-(5-Fluoro-6-Methoxypyridin-3-yl)-5-((R)-1-((S)-2-Methyl-4-(Methylsulfonyl)Piperazin-1-yl)Ethyl)-3-(2-Methyl-9H-Purin-6-yl)Pyridin-2-Amine] | 6 | 3 | 
17 | COc1ncc(Nc2ncc([C@H](C)N3CCN(S(C)(=O)=O)C[C@@H]3C)cc2-c2nc(C)nc3[nH]cnc23)cc1F [Example 296, N-(5-Fluoro-6-Methoxypyridin-3-yl)-5-((S)-1-((S)-2-Methyl-4-(Methylsulfonyl)Piperazin-1-yl)Ethyl)-3-(2-Methyl-9H-Purin-6-yl)Pyridin-2-Amine] | 51 | 18 | 
18 | COc1ncc(Nc2ncc([C@@H](C)N3CCN(S(C)(=O)=O)CC3)cc2-c2nc(C)nc3[nH]cnc23)cc1F [Example 297, (R)—N-(5-Fluoro-6-Methoxypyridin-3-yl)-3-(2-Methyl-9H-Purin-6-yl)-5-(1-(4-(Methylsulfonyl)Piperazin-1-yl)Ethyl)Pyridin-2-Amine] | 9 | 1 | 
19 | COc1ncc(Nc2ncc(C3(O)CC3)cc2-c2nc(C)nc(N)n2)cc1F [Example 298, 1-(5-(4-Amino-6-Methyl-1,3,5-Triazin-2-yl)-6-(5-Fluoro-6-Methoxypyridin-3-Ylamino)Pyridin-3-yl)Cyclopropanol] | 23 | 4 | 
20 | COc1ncc(Nc2ncc(C(C)NC(C)C)cc2-c2nc(C)nc(N)n2)cc1F (centres unmarked) [Example 299, 4-(2-(5-Fluoro-6-Methoxypyridin-3-Ylamino)-5-(1-(Isopropylamino)Ethyl)Pyridin-3-yl)-6-Methyl-1,3,5-Triazin-2-Amine] | 45 | 61 | 
21 | COc1ncc(Nc2ncc(C3(N)CC3)cc2-c2nc(C)nc(N)n2)cc1F [Example 300, 4-(5-(1-Aminocyclopropyl)-2-(5-Fluoro-6-Methoxypyridin-3-Ylamino)Pyridin-3-yl)-6-Methyl-1,3,5-Triazin-2-Amine] | 17 | 74 | 
22 | CCC(N)(CC)c1cnc(Nc2cnc(OC)c(F)c2)c(-c2nc(C)nc(N)n2)c1 [Example 301, 4-(5-(3-Aminopentan-3-yl)-2-(5-Fluoro-6-Methoxypyridin-3-Ylamino)Pyridin-3-yl)-6-Methyl-1,3,5-Triazin-2-Amine] | 70 | 110 | 
23 | COc1ncc(Nc2ncc([C@@H](C)N3CCN(S(C)(=O)=O)CC3)cc2-c2nc(C)nc(N)n2)cc1C(C)C [Example 302, (R)-4-(2-(5-Isopropyl-6-Methoxypyridin-3-Ylamino)-5-(1-(4-(Methylsulfonyl)Piperazin-1-yl)Ethyl)Pyridin-3-yl)-6-Methyl-1,3,5-Triazin-2-Amine] | 203 | 24 | 
24 | CCS(=O)(=O)c1cnc(Nc2cnc(OC)c(F)c2)c(-c2nc(C)nc(N)n2)c1 [Example 303, 4-(5-(ethylsulfonyl)-2-(5-fluoro-6-methoxypyridin-3-ylamino)pyridin-3-yl)-6-methyl-1,3,5-triazin-2-amine] | > 10000 | 807 | 
25 | Cc1nc(N)cc(-c2cccnc2Nc2cnc(Cl)c(NS(C)(=O)=O)c2)n1 [Example 304, N-(5-((3-(6-amino-2-methyl-4-pyrimidinyl)-2-pyridinyl)amino)-2-chloro-3-pyridinyl)methanesulfonamide] | 146 | 29 | 
26 | COc1ncc(Nc2ncc([C@@H](C)N3CCN(S(C)(=O)=O)CC3)cc2-c2cc(N)nc(C)n2)cc1F [Example 305, 6-(2-((5-fluoro-6-methoxy-3-pyridinyl)amino)-5-((1R)-1-(4-(methylsulfonyl)-1-piperazinyl)ethyl)-3-pyridinyl)-2-methyl-4-pyrimidinamine] | 1 | 2 | 
27 | COc1ccc(Nc2ncc(C(C)N3CC(S(C)(=O)=O)C3)cc2-c2nc(C)nc(N)n2)cn1 (centres unmarked) [Example 308, 4-(2-(6-methoxypyridin-3-ylamino)-5-(1-(3-(methylsulfonyl)azetidin-1-yl)ethyl)pyridin-3-yl)-6-methyl-1,3,5-triazin-2-amine 2,2,2-trifluoroacetate] |  | 19 | 60
28 | Cc1nc(N)nc(-c2cc([C@@H](C)N3CCN(S(C)(=O)=O)CC3)cnc2Nc2ccc3cccnc3c2)n1 [Example 310, (R)—N-(3-(4-amino-6-methyl-1,3,5-triazin-2-yl)-5-(1-(4-(methylsulfonyl)piperazin-1-yl)ethyl)pyridin-2-yl)quinolin-7-amine 2,2,2-trifluoroacetate] |  | 36 | 65
